Patent US8097585B2, “Methods of treating inflammation by administration of heme oxygenase-1 and products of heme degradation” (priority 2002, dated 2012)
Where a name gives a salt, the structure may show the parent alone.

Key:
[1] = tested on: HO-1; assay: HO-1 protein expression in heart and spleen after CoPPIX (Western blot); type: in vivo, DBA/2 mice; conditions: CoPPIX 5 mg/kg i.p.
Experimental: Protein extraction and Western blot. DBA/2 mice were injected i.p. with CoPPIX at a dose of 5 mg/kg. Non-treated animals served as naïve controls. One, 2, 4, and 7 days following treatment, the heart and the spleen were excised from the animals, and samples were snap-frozen in liquid nitrogen. Protein extracts were prepared from the obtained tissues, electrophoresed under denaturing conditions (10% polyacrylamide gels) and transferred onto polyvinyldifluoridine membranes (Immobilon™ P, Millipore, Bedford, Mass.). HO-1 was detected using the rabbit anti-human HO-1 polyclonal antibody (Stress Gen Biotechnologies Corp., Victoria, Canada); α-actin was detected using the goat anti-mouse α-actin mAb (1A4, Sigma-Aldrich Corporation). Primary antibodies were detected using horseradish peroxidase conjugated donkey anti-rabbit or goat anti-mouse IgG secondary antibodies (Pierce, Rockford, Ill.). Protein was visualized using the Enhanced Chemi Luminescence (ECL™) Assay kit (Amersham Life Science Inc., Arlington Heights, Ill.), according to the manufacturer's instructions, and stored in the form of photo radiographs (Biomax™ MS, Eastman Kodak, Rochester, N.Y.). The amount of HO-1 expression was normalized with α-actin expression, and was quantified by using the ImageQuant™ software (Molecular Dynamics, Sunny Vale, Calif.).

[2] = tested on: fulminant hepatitis; assay: TNF-α/D-Galactosamine hepatitis model, serum ALT; type: in vivo, mice (C57BL/6J)
Experimental: Male mice (C57BL/6J) were administered biliverdin ([…], i.p.) 16 hours and 1 hour prior to i.p. injection of a cocktail including 0.3 ug/mouse TNF-α (mouse TNF-α; Gibco) and 250 mg/kg, i.p. D-Galactosamine (Sigma), which induces fulminant hepatitis within 6-10 hours. Control mice received PBS vehicle. Serum samples were taken via cardiac puncture 6-8 hours later and analyzed for alanine aminotransferase (ALT) per an ALT assay kit from Sigma Chem. Co. following the manufacturer's directions.

[3] = tested on: transplanted islets in diabetic mice; assay: Syngeneic islet transplantation, minimal mass model; type: in vivo, DBA/2 mouse; conditions: 50 μmol/kg twice daily day-1 until day 7; 140 islets; control hyperglycemic >52 days
Experimental: The ability of exogenously administered biliverdin to protect transplanted islet was evaluated in the minimal mass model. Syngeneic islet transplantation was carried out in the DBA/2 mouse. Islets (140) were transplanted under the kidney capsule of diabetic mice. Test animals were treated with 50 μmol/kg biliverdin twice daily from day-1 until day 7. The controls were treated with vehicle only. Biliverdin treated animals returned to normoglycemia in 7.7±5.5 days; animals in control group remain hyperglycemic (>52 days).

[4] = tested on: NFAT; assay: EMSA of nuclear extracts, NFAT DNA binding; type: cell-based; conditions: Jurkat T cells, PMA plus ionomycin, 100 μM biliverdin
Experimental: Nuclear protein extraction and electrophoretic mobility shift assay (EMSA). Jurkat T cells were cultured in 10% FCS supplemented RPMI 1640 with 50 nM phorbol myristyl acetate (PMA) and 2 μM ionomycin (both reagents from ICN Biomedicals) in the presence or absence of 100 μM biliverdin. Following 0, 2, and 4 hrs of stimulation, cells (30×10^6 cells for each group at each time points) were collected, washed twice with PBS, and pelleted. Nuclear and cytoplasmic extracts were prepared according to a modified Shapiro's method (Shapiro et al., DNA 7(1):47-55, 1988). Protein concentrations were determined by the Bradford assay. The following oligonucleotides (Invitrogen, Calsbad, Calif.) were used for EMSA:
NFAT, (coding) 5′-[…]-3′ (SEQ ID NO:5),
(non-coding) 5′-[…]-3′ (SEQ ID NO:6); and
Oligonucleotides were radioactively labeled with [^32P] ATP. The EMSA reactions were assembled as previously described (Usheva et al., Proc. Natl. Acad. Sci. USA 93(24):13571-6, 1996). Digital images from the EMSA radiographs were obtained using an image scanner.

Row | Structure (SMILES) | HO-1 protein expression in the heart and spleen [1] | time of maximal HO-1 expression after injection [1] | serum ALT ([2]; 6-8 hours after TNF-α/D-Galactosamine, control about 1000, normal 20-30) | reduction of serum ALT levels compared to vehicle treated controls ([2]; biliverdin 50 mmol/kg i.p. 16 hours and 1 hour prior to TNF-α/D-Galactosamine) | time to return to normoglycemia [3] | DNA binding of NFAT [4]
1 | C=CC1=C(C)c2cc3[n-]c(cc4nc(cc5[n-]c(cc1n2)c(C)c5CCC(=O)[O-])C(CCC(=O)[O-])=C4C)c(C)c3C=C.[Co+2].[H+].[H+] [CoPP, Cobalt protoporphyrin] | up-regulated | one |  |  |  | 
2 | C=CC1=C(C)/C(=C/C2=NC(=C\c3[nH]c(/C=C4\NC(=O)C(C)=C4C=C)c(C)c3CCC(=O)O)/C(CCC(=O)O)=C2C)NC1=O [biliverdin, biliverdin dihydrochloride] |  |  | ~100 IU/ml | more than 90% | 7.7 ± 5.5 days | inhibited DNA binding
